Test results reported in patent US20230040909A1 (priority 2019, published 2023).
≈ marks a conversion by molar mass, not a printed value. Where two headings read alike, the source gives them in different places.

Assays:
M. tb H37Rv [1] = experiment: microbe, parasite or virus in culture; type: cell-based, Mycobacterium tuberculosis; conditions: Mycobacterium tuberculosis, H37RV; for MIC: read-out: M. tb H37Rv: MIC-MABA
VERO cell cytotoxicity = type: cell-based; conditions: African green monkey, VERO cells
Text: The procedures described in Falzari 2005 were used to generate the data shown in column 2 of Table 4.

Mycobacterium abscessus = experiment: M. ab_ATCC MIC MHII; type: cell-based; conditions: Mycobacteroides abscessus; read-out: M. ab_ATCC: MIC MHII: MIC
Text: The procedure described in Franz 2017 was used to generate the data shown in column 5 of Table 4.

M. tb H37Rv [2] = experiment: microbe, parasite or virus in culture; type: cell-based; conditions: Mycobacterium tuberculosis; for MIC: read-out: M. tb H37Rv: MIC-LORA; for inhibition at 20 µg/mL: at 20 μg/mL, read-out: M. tb H37Rv: MIC-LORA: Comment (% inhibition)

Compound	MIC (M. tb H37Rv [1]) [ng/mL]	IC50 (VERO cell cytotoxicity) [µg/mL]	MIC (Mycobacterium abscessus) [µg/mL]	MIC (M. tb H37Rv [2]) [µg/mL]	inhibition at 20 µg/mL (M. tb H37Rv [2]) [%]	inhibition at 1 µg/mL (M. tb H37Rv [1]; at 1 ug/mL, read-out: M. tb H37Rv: MABA % inhibition) [%]
Cc1cc(C)c2cc(C(=O)NC3CC[Si](C)(C)C3)[nH]c2c1 (racemic) [MPL-296, N-(1,1-dimethylsilolan-3-yl)-4,6-dimethyl-1H-indole-2-carboxamide]	15.1 (≈ 0.0503 µM)	13.8 (≈ 45.9 µM)	0.062 (≈ 0.206 µM)	2.3 (≈ 7.65 µM)		
Cc1cc(C)c2cc(C(=O)NC3CC[Si]4(CCCC4)CC3)[nH]c2c1 [MPL-264, 4,6-dimethyl-N-(5-silaspiro[4.5]decan-8-yl)-1H-indole-2-carboxamide]	11 (≈ 0.0323 µM)	> 20	64 (≈ 188 µM)	> 20	85	
Cc1cc(C)c2cc(C(=O)NC3CC[Si](C)(C)CC3)[nH]c2c1 [MPL-317, N-(1,1-dimethylsilinan-4-yl)-4,6-dimethyl-1H-indole-2-carboxamide]	31 (≈ 0.0986 µM)	> 20	0.062 (≈ 0.197 µM)	> 20		
C[Si]1(C)CCC(NC(=O)c2cc3c(C(F)(F)F)cc(C(F)(F)F)cc3[nH]2)C1 (stereo not shown) [MPL-327, N-(1,1-dimethylsilolan-3-yl)-4,6-bis(trifluoromethyl)-1H-indole-2-carboxamide]	7.52 (≈ 0.0184 µM)	> 20	> 64	> 20		
C[Si]1(C)CCC(NC(=O)c2cc3c(Br)cc(C(F)(F)F)cc3[nH]2)CC1 [MPL-339, 4-bromo-N-(1,1-dimethylsilinan-4-yl)-6-(trifluoromethyl)-1H-indole-2-carboxamide]	< 4	> 20	> 64	> 20		
C[Si]1(C)CC[C@@H](NC(=O)c2cc3c(Cl)cc(Cl)cc3[nH]2)C1 (single isomer, unassigned) [MPL-399A]	30 (≈ 0.0879 µM)	> 64	0.125 (≈ 0.366 µM)			
Cc1cc(Br)c2cc(C(=O)NC3CC[Si](C)(C)CC3)[nH]c2c1 [MPL-337, 4-bromo-N-(1,1-dimethylsilinan-4-yl)-6-methyl-1H-indole-2-carboxamide]	7 (≈ 0.0185 µM)	> 20	> 64	> 20		
C[Si]1(C)CCC(NC(=O)c2cc3c(F)cc(F)cc3[nH]2)C1 (stereo not shown) [MPL-400, N-(1,1-dimethylsilolan-3-yl)-4,6-difluoro-1H-indole-2-carboxamide]	11.3 (≈ 0.0366 µM)	> 20	> 64	> 20		
Cc1c(C(=O)NC2CC[Si](C)(C)CC2)[nH]c2cc(Cl)cc(Cl)c12 [MPL-334, 4,6-dichloro-N-(1,1-dimethylsilinan-4-yl)-3-methyl-1H-indole-2-carboxamide]	< 4	> 20	> 64	> 20		
C[Si]1(C)CC[C@H](NC(=O)c2cc3c(Cl)cc(Cl)cc3[nH]2)C1 (single isomer, unassigned) [MPL-399B]	3 (≈ 0.00879 µM)	52 (≈ 152 µM)	0.125 (≈ 0.366 µM)			
CC(CC[Si](C)(C)C)NC(=O)c1cc2c(Cl)cc(Cl)cc2[nH]1 (stereo not shown) [MPL-360, 4,6-dichloro-N-(1-methyl-3-trimethylsilyl-propyl)-1H-indole-2-carboxamide]		15.4 (≈ 43.1 µM)		> 20		87
O=C(NC1CC[Si]2(CCCC2)CC1)c1cc2c(Cl)cc(Cl)cc2[nH]1 [MPL-252, 4,6-dichloro-N-(5-silaspiro[4.5]decan-8-yl)-1H-indole-2-carboxamide]	14 (≈ 0.0367 µM)	> 20	64 (≈ 168 µM)			
Cc1cc(C)c2cc(C(=O)NC3CCC[Si](C)(C)CC3)[nH]c2c1 (stereo not shown) [MPL-262, N-(1,1-dimethylsilepan-4-yl)-4,6-dimethyl-1H-indole-2-carboxamide]	9 (≈ 0.0274 µM)		0.5 (≈ 1.52 µM)	16 (≈ 48.7 µM)		
O=C(NC1CC[Si]2(CCCCC2)CC1)c1cc2c(Cl)cc(Cl)cc2[nH]1 [MPL-257, 4,6-dichloro-N-(6-silaspiro[5.5]undecan-3-yl)-1H-indole-2-carboxamide]	4.5 (≈ 0.0114 µM)		> 64	> 20	68	
